In patent publication US7879792B2, “Synthetic peptide inhibitors of thrombin and thrombin activation of protease activated receptors 1 and 4” (The Regents of the University of Michigan, priority 2005, dated 2011):
“Also recorded” adds a separate entry of the source. Where a SMILES comes first, the peptide text is derived from it.

Tests used:
[1] = stability testing in intestinal homogenate; format: in vitro ADME; conditions: rat
Procedure: Stability testing of the various compounds was performed in buffer, intestinal perfusate, and an intestinal homogenate preparation to assess the potential oral availability of these compounds. Initial studies prepared the tissue for stability studies. The buffer used in stability testing is 10 mM MES (pH 6.5) containing 135 mM NaCl, and 5 mM KCl. To collect intestinal perfusate from rats, male Sprague Dawley rats, 8 to 10 weeks old, weighing 250 to 350 g were fasted 15 to 18 hours with water given ad libitum. Anesthesia was administered by intramuscular injection of pentobarbital/ketamine (40 mg/kg and 80 mg/kg, respectively). The rats were placed on a warming pad under a surgical lamp to maintain body temperature and jejunal intestinal segments were exposed through a midline, abdominal incision. Approximately 20 cm segment of the jejunum (2 to 4 cm distal to the ligament of Treitz) was cannulated and the intestinal segments were perfused with 10 mM MES (pH 6.5) containing 135 mM NaCl, and 5 mM KCl at a flow-rate of 0.5 ml/min at 37° C. using a constant infusion pump (Harvard Apparatus, South Natick, Mass.). The collected perfusate was stored at −80° C. until use for ex vivo stability studies. After collection, the perfused intestinal segments were flushed with ice-cold 0.15 M KCl solution and the animal was euthanized and the jejunal intestinal segment detached. The inner intestinal tissue layers are scraped out and homogenized in MES buffer (pH 6.5) in a ratio of 1 part of intestinal tissue to 5 parts buffer. Total protein content of the perfusate and the homogenate were determined using a Biorad protein assay kit. The intestinal homogenate samples were used immediately or rapidly frozen at −80° C. until stability analysis.
The actual stability testing protocol is as follows: A 0.1 ml aliquot of the synthetic peptide solution (1 mg/ml) was added to 0.9 ml of MES buffer, pH 6.5, intestinal perfusate, or intestinal homogenate at 37° C. Samples were mixed by vortexing and 100 microliter aliquots were removed over a 60 to 90 minute period for analysis of breakdown products. The 100 microliter sample aliquots were diluted 10 fold with water and subjected to solid phase extraction using a Waters Oasis HLB column. Briefly, the columns were preconditioned by passing 1 ml of MeOH and 1 ml of water over the column, and 1 ml of sample was added to the column. The column was washed with 5% methanol:95% water solution to remove proteins and salts, then eluted with 1 ml of 100% methanol. The methanol was removed by vacuum, and the sample was reconstituted in mobile phase for LC/MS/MS analysis.
LC/MS/MS analysis was performed on a HP1100 HPLC (Hewlett Packard) interfaced with a Quattro II MS/MS detector (Waters/Micromass). For the HPLC separation, a 10 μL aliquot of sample in a mobile phase consisting of an equal volume mixture of acetonitrile/water containing 0.5% formic acid was injected onto a 150 mm×2.2 mm, 5 μm C8 column (Higgins Analytical Inc) and developed at a flow rate of 0.2 ml/min for 5 minutes. The MS detector was used in single ion recording mode at a cone voltage of 50 Volts.

C57BL6 mice = assay: Rose Bengal model for arterial thrombosis, time to carotid artery occlusion; format: in vivo, mouse; conditions: 0.2 to 3.22 mg/kg IP
Description: C57BL6 mice 6 to 16 weeks of age were anesthetized by intraperitoneal injection with sodium pentobarbital and placed in the supine position on a dissecting microscope (Nikon SMZ-2T, Mager Scientific, Inc., Dexter, Mich.). A midline surgical incision was made to expose the right common carotid artery and a Doppler flow probe (Model 0.5 VB, Transonic Systems, Ithaca, N.Y.) is placed under the vessel. The probe was connected to a flowmeter (Transonic Model T106) and was interpreted with a computerized data acquisition program (Windaq, DATAQ Instruments, Arkron, Ohio). Rose Bengal (4,5,6,7-tetrachloro-3′,6-dihydroxy-2,4,5,7-tetraiodospiro(isobenzofuran-1(3H), 9 [9H] xanthan)-3-1 dipotassium salt) (Fisher Scientific, Fair Lawn, N.J.) at 50 mg/kg in 0.9% saline) was then injected into the tail vein in a 0.12 ml volume (Eitzman et al., Blood 95, 577 (2000)). After injection into the tail vein, a green laser light (Melles Griot, Carlsbad, Calif.) at a wavelength of 540 nm was applied 6 cm from the carotid artery. Flow is monitored continuously from the onset of injury. The time to occlusion was determined only after the vessel remained closed with a cessation of blood flow for 20 min. […] These investigations indicate that these compounds are able to prevent thrombosis in the whole animal in vivo.

[2] = system: normal human lung fibroblasts (NHLF); assay: α-thrombin-induced calcium mobilization in normal human lung fibroblasts; format: cell-based; conditions: 2 nM alpha thrombin
Procedure: The second assay developed to assess peptides from the combinatorial libraries uses inhibition of α-thrombin-induced calcium mobilization in fibroblasts. Normal human lung fibroblasts (NHLF) were purchased from Clonetics, San Diego, Calif., an affiliate of Bio-Wittaker, Walkersville, Md. The cytoplasmic free Ca^2+ concentration ([Ca^2+]i) was measured using the fluorescent Ca^2+ indicator fura-2 (Molecular Probes, Inc., Eugene, Oreg.). Suspension of fibroblasts in Hepes-Tyrode's buffer were loaded with fura-2 by incubation at 37° C. with 2 μM fura-2/acetoxymethyl ester for 45 minutes according to the method of Rasmussen et al., J. Biol. Chem. 268, 14322 (1993). The labeled fibroblasts were separated from excess probe by washing by centrifugation at 1000 rpm (180 xg). Aliquots of the labeled fibroblasts were transferred into a quartz cuvette with a magnetic stirrer, which was then placed in a thermostatically controlled chamber at 37° C. in a fluorescence spectrophotometer (Perkin-Elmer LS50B spectrofluorometer, Chicago, Ill.). Reagents, test peptide, and α-thrombin (0.25-2 nM), were sequentially added directly to the cuvette. The excitation wavelengths varied between 340 and 380 nm. Fluorescence was measured by recording emitted light at 510 nm as reported by Fisher et al., Mol Pharm. 35, 195 (1989). The minimum emission was determined on a solubilized fibroblast sample in the presence of 10 mM EDTA; maximum emission was determined on the same sample with 10 mM Ca^2+ added. The intrafibroblast free Ca^2+ concentration was calculated by the method of Grykiewicz et al., J. Biol. Chem. 260, 3440 (1985). The ratio of the fluorescence readings was calculated as R=340/380 nm and processed according to the equation [Ca^2+]i=KD((R−Rmin)/Rmax−R))(Sf2/Sb2) to determine the intrafibroblast free Ca^2+ concentration. The KD for fura-2 was assumed to be 224 nM. Rmax and Rmin are the maximum and minimum fluorescence ratios measured at the end of the experiment, respectively; Sf2 and Sb2 are the fluorescence values at 380 nm in the absence and presence of saturating [Ca^2+], respectively. The reaction was monitored for 3-5 minutes.

Row | half-life at 0.1 mg/ml ([1]; male, Sprague Dawley, intestinal homogenate, pH 6.5, 37° C., read-out: t1/2 (min) Intestinal Homogenate) | stability in intestinal homogenate (FIG. 12) [1] | Structure (SMILES) | time to occlusion of the mouse right carotid artery (C57BL6 mice) | alpha thrombin-induced calcium mobilization ([2]; 0.00038 mM peptide) | inhibition of thrombin-induced calcium mobilization ([2]; 0.003 mM peptide) | inhibition of thrombin-induced calcium mobilization ([2]; 0.08 mM peptide)
1 | 40.3 min | less stable | N=C(N)NCCC[C@@H](N)C(=O)N1[C@H](C(=O)N2CCC[C@H]2C(=O)NCC(=O)N[C@@H](Cc2ccccc2)C(N)=O)C[C@@H]2CCCC[C@@H]21 [rOicPGF, D-Arg-Oic-Pro-Gly-Phe, reference compound] (HELM PEPTIDE1{[dR].[O=C([C@@H]1C[C@@H]2CCCC[C@@H]2N1[*:1])[*:2]].P.G.F.[am]}$$$$V2.0) |  |  |  | 
2 |  |  | Cc1ccc(C[C@H](NC(=O)[C@@H](C)NC(=O)[C@@H]2CCCN2C(=O)[C@@H]2C[C@@H]3CCCC[C@@H]3N2C(=O)[C@H](N)CCCNC(=N)N)C(N)=O)cc1 [rOicPaF(p-Me), D-Arg-Oic-Pro-D-Ala-Phe(p-Me)] (HELM PEPTIDE1{[dR].[O=C([C@@H]1C[C@@H]2CCCC[C@@H]2N1[*:1])[*:2]].P.[dA].[Cc1ccc(C[C@H](N[*:1])C(=O)[*:2])cc1].[am]}$$$$V2.0) | significant prolongation; also recorded: progressively prolonged | full recovery | 69% | 97%
